Measurements taken from ChEMBL document CHEMBL1821685 (Eur J Med Chem, 2011).
Converted amounts (≈) assume the structure as drawn.

Test: Solubility of the compound in HEPES buffer
Type: physicochemical

| SMILES | solubility [µM] |
| --- | --- |
| CC(=O)c1cnc2c(=O)[nH]c(N)nc2n1 | 500 (≈ 103 µg/mL) |
| NNC(=O)c1cnc2c(=O)[nH]c(N)nc2n1 | 500 (≈ 111 µg/mL) |
